According to US20240043435A1, “TYK-2 INHIBITOR” (BEIGENE, LTD., priority 2020, published 2024):
Where two headings read alike, the source gives them in different places.

Tests used:
[1] = system: JAK2, TYK2/p-STAT4 (Tyr693) activated by IL-12 in NK-92 cell line; test: IL-12-JAK2, TYK2/p-STAT4 (Tyr693) inhibition IC50 cellular assay; assay type: cell-based; details: for IC50: read-out: pSTAT4/IL-12 IC50; for Selectivity fold (TYK2/JAK2): pSTAT5/GM-CSF IC50 vs pSTAT4/IL-12 IC50
How it was run: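 NK-92 cells were starved overnight without IL-2 and preincubated 1 h at 37° C with compound (8 doses, 10000–0.61 nM, 4-fold, 0.2% DMSO). They were then stimulated with IL-12 (40 ng/ml final) for 30 min. Lysate p-STAT4 (Tyr693) was read by AlphaLISA SureFire; IC50 from four-parameter logistic fit.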

[2] = target: T1, TYK2-JH2 (aa 575-869, in-house) protein (Homo sapiens, UniProt P29597); test: TYK2-JH2 biochemical assay (HTRF probe displacement); assay type: binding; details: Biochemical assay; read-out: TYK2-JH2 IC50
T1 construct: TYK2-JH2 (aa 575-869, in-house) protein; made in house
How it was run: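 Recombinant TYK2-JH2 (0.2 nM) was pre-incubated 0.5 h at room temperature with compounds (10 doses, 5-fold dilution; 500× DMSO stocks from 500 uM) in 20 mM HEPES pH 7.5, 10 mM MgCl2, 0.005% BSA, 2 mM DTT, 0.015% Brij-35. Probe displacement was read by HTRF (ex337, em620/665 nm); IC50 from four-parameter logistic fit.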

[3] = system: pSTAT5/GM-CSF; test: pSTAT5/GM-CSF cellular assay (JAK2 selectivity); assay type: cell-based; details: for Selectivity fold (TYK2/JAK2): pSTAT5/GM-CSF IC50 over pSTAT4/IL-12 IC50

T1 sequence (P29597 575-869): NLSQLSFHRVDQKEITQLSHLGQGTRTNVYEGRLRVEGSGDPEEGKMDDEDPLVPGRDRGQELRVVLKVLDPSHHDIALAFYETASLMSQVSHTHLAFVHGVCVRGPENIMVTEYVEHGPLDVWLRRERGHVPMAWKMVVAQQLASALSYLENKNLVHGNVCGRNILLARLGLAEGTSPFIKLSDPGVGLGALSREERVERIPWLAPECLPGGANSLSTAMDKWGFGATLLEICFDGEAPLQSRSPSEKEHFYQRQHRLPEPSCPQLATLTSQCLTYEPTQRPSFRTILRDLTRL

Compound: CC(=O)Nc1cc(Nc2cc(C3COCCO3)cc(S(C)(=O)=O)n2)c(-c2ccc3c(n2)OCC(C)(C)O3)cn1 (racemic) [Example Q51, (S/R)—N-(4-((4-(1,4-dioxan-2-yl)-6-(methylsulfonyl)pyridin-2-yl)amino)-5-(2,2-dimethyl-2,3-dihydro-[1,4]dioxino[2,3-b]pyridin-6-yl)pyridin-2-yl)acetamide]
- IC50 ([1]; Cellular assay): 0.979 nM
- IC50 [2]: 0.034 nM
- IC50 [3]: > 10000 nM
- Selectivity fold (TYK2/JAK2) [3]: >10214 fold

Compound: CC(=O)Nc1cc(Nc2ccc(F)c(S(C)(=O)=O)n2)c(-c2ccn(C)n2)cn1 [Example J54, N-(4-((5-fluoro-6-(methylsulfonyl)pyridin-2-yl)amino)-5-(1-methyl-1H-pyrazol-3-yl)pyridin-2-yl)acetamide]
- IC50 ([1]; NK92, Cellular assay): 2.03 nM
- IC50 [2]: 0.028 nM
- IC50 [3]: > 10000 nM
- Selectivity fold (TYK2/JAK2) [3]: >4926 fold

Compound: CC(=O)Nc1cc(Nc2cc(C3CCCOC3)cc(S(C)(=O)=O)n2)c(-c2ccc3c(n2)OCC(C)(C)O3)cn1 (stereo not shown) [Example Q75, N-(5-(2,2-dimethyl-2,3-dihydro-[1,4]dioxino[2,3-b]pyridin-6-yl)-4-((6-(methylsulfonyl)-4-(tetrahydro-2H-pyran-3-yl)pyridin-2-yl)amino)pyridin-2-yl)acetamide]
- IC50 ([1]; NK92, Cellular assay): 0.637 nM
- IC50 [2]: 0.024 nM
- IC50 [3]: 473 nM
- Selectivity fold (TYK2/JAK2) [3]: 742 fold

Compound: CC(=O)Nc1cc(Nc2cc(OC(C)C)cc(S(C)(=O)=O)n2)c(-n2cccn2)cn1 [Example A12, N-(4-((4-isopropoxy-6-(methylsulfonyl)pyridin-2-yl)amino)-5-(1H-pyrazol-1-yl)pyridin-2-yl)acetamide]
- Selectivity fold (TYK2/JAK2) ([1]; Cellular assay): >595 fold
- IC50 ([1]; NK92, Cellular assay): 16.8 nM
- IC50 [2]: 0.037 nM
- IC50 [3]: > 10000 nM

Compound: CC(=O)Nc1cc(Nc2cc(OCC3CC3)cc(S(C)(=O)=O)n2)c(-c2ccc(N3C[C@@H](C)O[C@@H](C)C3)cn2)cn1 [Example C5, N-(4′-((4-(cyclopropylmethoxy)-6-(methylsulfonyl)pyridin-2-yl)amino)-5-((cis)-2,6-dimethylmorpholino)-[2,3′-bipyridin]-6′-yl)acetamide]
- Selectivity fold (TYK2/JAK2) ([1]; Cellular assay): >456 fold
- IC50 ([1]; NK92, Cellular assay): 21.9 nM
- IC50 [2]: 0.032 nM
- IC50 [3]: > 10000 nM

Compound: COCCOc1cc(Nc2cc(NC(C)=O)ncc2-c2ccc(C(C)(C)O)cn2)nc(S(C)(=O)=O)c1 [Example H6, N-(5-(2-hydroxypropan-2-yl)-4′-((4-(2-methoxyethoxy)-6-(methylsulfonyl)pyridin-2-yl)amino)-[2,3′-bipyridin]-6′-yl)acetamide]
- Selectivity fold (TYK2/JAK2) ([1]; Cellular assay): 7097 fold
- IC50 ([1]; NK92, Cellular assay): 1.25 nM
- IC50 [2]: 0.014 nM
- IC50 [3]: 8870 nM

Compound: CCS(=O)(=O)c1cc(OC(C)C)cc(Nc2cc(NC(C)=O)ncc2-c2ccc(C(C)(C)O)cn2)n1 [Example H36, N-(4′-((6-(ethylsulfonyl)-4-isopropoxypyridin-2-yl)amino)-5-(2-hydroxypropan-2-yl)-[2,3′-bipyridin]-6′-yl)acetamide]
- Selectivity fold (TYK2/JAK2) ([1]; Cellular assay): >5128 fold
- IC50 ([1]; NK92, Cellular assay): 1.95 nM
- IC50 [2]: 0.022 nM
- IC50 [3]: > 10000 nM

Compound: CC(=O)Nc1cc(Nc2cc(OC(C)C)cc(S(C)(=O)=O)n2)c(-c2ccn(C3CCC3)n2)cn1 [Example A19, N-(5-(1-cyclobutyl-1H-pyrazol-3-yl)-4-((4-isopropoxy-6-(methylsulfonyl)pyridin-2-yl)amino)pyridin-2-yl)acetamide]
- Selectivity fold (TYK2/JAK2) ([1]; Cellular assay): >6535 fold
- IC50 ([1]; NK92, Cellular assay): 1.53 nM
- IC50 [2]: 0.034 nM
- IC50 [3]: > 10000 nM

Compound: CC(=O)Nc1cc(Nc2cc(OCC(C)C)cc(S(C)(=O)=O)n2)c(-c2ccn(C)n2)cn1 [Example J59, N-(4-((4-isobutoxy-6-(methylsulfonyl)pyridin-2-yl)amino)-5-(1-methyl-1H-pyrazol-3-yl)pyridin-2-yl)acetamide]
- IC50 ([1]; NK92, Cellular assay): 1.31 nM
- IC50 [2]: 0.029 nM
- IC50 [3]: > 10000 nM
- Selectivity fold (TYK2/JAK2) [3]: >7633 fold

Compound: CC(=O)Nc1cc(Nc2cc(F)cc(S(C)(=O)=O)c2)c(-c2ccn(C)n2)cn1 [Example J30, N-(4-((3-fluoro-5-(methylsulfonyl)phenyl)amino)-5-(1-methyl-1H-pyrazol-3-yl)pyridin-2-yl)acetamide]
- IC50 ([1]; NK92, Cellular assay): 4.82 nM
- IC50 [2]: 0.054 nM
- IC50 [3]: > 10000 nM
- Selectivity fold (TYK2/JAK2) [3]: >2074 fold

Compound: CC(=O)Nc1cc(Nc2cc(C3CCOCC3)cc(S(C)(=O)=O)n2)c(-c2ccc3c(n2)OCC(C)(C)O3)cn1 [Example Q23, N-(5-(2,2-dimethyl-2,3-dihydro-[1,4]dioxino[2,3-b]pyridin-6-yl)-4-((6-(methylsulfonyl)-4-(tetrahydro-2H-pyran-4-yl)pyridin-2-yl)amino)pyridin-2-yl)acetamide]
- IC50 ([1]; NK92, Cellular assay): 0.605 nM
- IC50 [2]: 0.028 nM
- IC50 [3]: 8100 nM
- Selectivity fold (TYK2/JAK2) [3]: 13390 fold

Compound: CC(=O)Nc1cc(Nc2cc(O[C@H]3C[C@@H](O)C3)cc(S(C)(=O)=O)n2)c(-c2ccc(C(C)(C)O)cn2)cn1 [Example H28, N-(4′-((4-(cis-3-hydroxycyclobutoxy)-6-(methylsulfonyl)pyridin-2-yl)amino)-5-(2-hydroxypropan-2-yl)-[2,3′-bipyridin]-6′-yl)acetamide]
- Selectivity fold (TYK2/JAK2) ([1]; Cellular assay): >342 fold
- IC50 ([1]; NK92, Cellular assay): 29.2 nM
- IC50 [2]: 0.03 nM
- IC50 [3]: > 10000 nM

Compound: CCn1ccc(-c2cnc(NC(C)=O)cc2Nc2cc(OCCO)cc(S(C)(=O)=O)n2)n1 [Example M19, N-(5-(1-ethyl-1H-pyrazol-3-yl)-4-((4-(2-hydroxyethoxy)-6-(methylsulfonyl)pyridin-2-yl)amino)pyridin-2-yl)acetamide]
- IC50 ([1]; NK92, Cellular assay): 2.55 nM
- IC50 [2]: 0.032 nM
- IC50 [3]: > 10000 nM
- Selectivity fold (TYK2/JAK2) [3]: >3921 fold

Compound: COc1ccc(-c2cnc(NC(C)=O)cc2Nc2cc(OCC3CC3)cc(S(C)(=O)=O)n2)nn1 [Example A25, N-(4-((4-(cyclopropylmethoxy)-6-(methylsulfonyl)pyridin-2-yl)amino)-5-(6-methoxypyridazin-3-yl)pyridin-2-yl)acetamide]
- Selectivity fold (TYK2/JAK2) ([1]; Cellular assay): >16778 fold
- IC50 ([1]; NK92, Cellular assay): 0.596 nM
- IC50 [2]: 0.027 nM
- IC50 [3]: > 10000 nM

Compound: CCn1ccc(-c2cnc(NC(C)=O)cc2Nc2cc(OCCOC)cc(S(C)(=O)=O)c2)n1 [Example M14, N-(5-(1-ethyl-1H-pyrazol-3-yl)-4-((3-(2-methoxyethoxy)-5-(methylsulfonyl)phenyl)amino)pyridin-2-yl)acetamide]
- IC50 ([1]; NK92, Cellular assay): 9.46 nM
- IC50 [2]: 0.03 nM
- IC50 [3]: > 10000 nM
- Selectivity fold (TYK2/JAK2) [3]: >1057 fold

Compound: CC(=O)Nc1cc(Nc2cccc(S(C)(=O)=O)c2)c(-c2ccn(C3CCOC3)n2)cn1 (stereo not shown) [Example M30, N-(4-((3-(methylsulfonyl)phenyl)amino)-5-(1-(tetrahydrofuran-3-yl)-1H-pyrazol-3-yl)pyridin-2-yl)acetamide]
- IC50 ([1]; NK92, Cellular assay): 11.2 nM
- IC50 [2]: 0.049 nM
- IC50 [3]: > 10000 nM
- Selectivity fold (TYK2/JAK2) [3]: >892 fold

Compound: CCOc1cc(Nc2cc(NC(C)=O)ncc2-c2ccc(OCCOC)cn2)nc(S(C)(=O)=O)c1 [Example D9, N-(4′-((4-ethoxy-6-(methylsulfonyl)pyridin-2-yl)amino)-5-(2-methoxyethoxy)-[2,3′-bipyridin]-6′-yl)acetamide]
- Selectivity fold (TYK2/JAK2) ([1]; Cellular assay): >20876 fold
- IC50 ([1]; NK92, Cellular assay): 0.479 nM
- IC50 [2]: 0.021 nM
- IC50 [3]: > 10000 nM

Compound: COCCOc1cc(Nc2cc(NC(C)=O)ncc2-c2ccn(C)n2)cc(S(C)(=O)=O)c1 [Example J35, N-(4-((3-(2-methoxyethoxy)-5-(methylsulfonyl)phenyl)amino)-5-(1-methyl-1H-pyrazol-3-yl)pyridin-2-yl)acetamide]
- IC50 ([1]; NK92, Cellular assay): 8.13 nM
- IC50 [2]: 0.036 nM
- IC50 [3]: > 10000 nM
- Selectivity fold (TYK2/JAK2) [3]: >1230 fold

Compound: CC(=O)Nc1cc(Nc2cc(F)cc(S(C)(=O)=O)c2)c(-c2ccc(C(C)(C)O)cn2)cn1 [Example H19, N-(4′-((3-fluoro-5-(methylsulfonyl)phenyl)amino)-5-(2-hydroxypropan-2-yl)-[2,3′-bipyridin]-6′-yl)acetamide]
- Selectivity fold (TYK2/JAK2) ([1]; Cellular assay): >3125 fold
- IC50 ([1]; NK92, Cellular assay): 3.2 nM
- IC50 [2]: 0.028 nM
- IC50 [3]: > 10000 nM

Compound: COCc1ccc(-c2cnc(NC(C)=O)cc2Nc2cc(OCCO)cc(S(C)(=O)=O)n2)nc1 [Example E6, N-(4′-((4-(2-hydroxyethoxy)-6-(methylsulfonyl)pyridin-2-yl)amino)-5-(methoxymethyl)-[2,3′-bipyridin]-6′-yl)acetamide]
- Selectivity fold (TYK2/JAK2) ([1]; Cellular assay): >3676 fold
- IC50 ([1]; NK92, Cellular assay): 2.72 nM
- IC50 [2]: 0.029 nM
- IC50 [3]: > 10000 nM

Compound: CC(=O)Nc1cc(Nc2cc(OCC3COC3)cc(S(C)(=O)=O)n2)c(-c2ccc(C(C)(C)O)cn2)cn1 [Example H12, N-(5-(2-hydroxypropan-2-yl)-4′-((6-(methylsulfonyl)-4-(oxetan-3-ylmethoxy)pyridin-2-yl)amino)-[2,3′-bipyridin]-6′-yl)acetamide]
- Selectivity fold (TYK2/JAK2) ([1]; Cellular assay): >1960 fold
- IC50 ([1]; NK92, Cellular assay): 5.1 nM
- IC50 [2]: 0.022 nM
- IC50 [3]: > 10000 nM

Compound: CC(=O)Nc1cc(Nc2cc(C)cc(S(C)(=O)=O)n2)c(-c2ccc3c(n2)OCC(C)(C)O3)cn1 [Example Q21, N-(5-(2,2-dimethyl-2,3-dihydro-[1,4]dioxino[2,3-b]pyridin-6-yl)-4-((4-methyl-6-(methylsulfonyl)pyridin-2-yl)amino)pyridin-2-yl)acetamide]
- IC50 ([1]; NK92, Cellular assay): 0.411 nM
- IC50 [2]: 0.037 nM
- IC50 [3]: 1570 nM
- Selectivity fold (TYK2/JAK2) [3]: 3824 fold
